In the assay the target is T1, MASP-2 (CCP1-CCP2-SP) (Homo sapiens, UniProt O00187).
T1 construct: 15 μL of Enzyme MASP-2 (CCP1-CCP2-SP) in Assay Buffer
Description: Enzymatic Assay for MASP-2 (fluorogenic substrate). In kind it is biochemical. Particulars: room temperature, 20 mM HEPES pH 7.4, 140 mM NaCl, 0.1% Tween 20, 20 min. How it is done: Enzymatic Assay for MASP-2
The MASP-2 assay utilizes a fluorogenic substrate, based on the cleavage site for its natural substrate C2. The assay is run at room temperature in an assay buffer containing 20 mM HEPES, pH 7.4, 140 mM NaCl and 0.1% Tween 20. Assay parameters are adjusted such that the assay is linear with respect to time, enzyme, and substrate concentrations. Under these optimized assays conditions, IC50 values are equivalent to Ki values, except in a few cases of “tight binding” inhibitors. Cases of “tight binding” or possible “slow binding” inhibitors are handled by the methods described in Copeland R. A. (2013) Evaluation of Enzyme Inhibitors in Drug Discovery. 2nd Ed., John Wiley and Sons, Inc., Chapters 5-7.
The MASP-2 assay protocol is carried out as follows. Test compounds are serially diluted in DMSO and then 100 nL of each dilution is transferred to the assay plate(s). 10 μL of Assay Buffer is added, followed by 15 μL of Enzyme MASP-2 (CCP1-CCP2-SP) in Assay Buffer. 15 μL of Substrate in Assay Buffer is then added and mixed to start the reactions. After 20 min at room temperature, 15 μL of a stop solution (0.1 M acetic acid) is added, mixed and the plates are read on a SpectraMax i3× Microplate Reader and exported as Excel files. Each assay plate included a “no inhibitor” (DMSO Only) control, a “no enzyme” control and a reference inhibitor control. % Activity values=100*(average test comp. fluorescence-average “no enzyme” fluorescence)/(average “DMSO only” fluorescence-average “no enzyme” fluorescence). IC50 and Ki values are very reproducible, falling well within ±2-fold.

The structures appear in SMILES notation. Where a name gives a salt, the structure may show the parent alone.

T1 sequence (O00187 445-686 limits assumed): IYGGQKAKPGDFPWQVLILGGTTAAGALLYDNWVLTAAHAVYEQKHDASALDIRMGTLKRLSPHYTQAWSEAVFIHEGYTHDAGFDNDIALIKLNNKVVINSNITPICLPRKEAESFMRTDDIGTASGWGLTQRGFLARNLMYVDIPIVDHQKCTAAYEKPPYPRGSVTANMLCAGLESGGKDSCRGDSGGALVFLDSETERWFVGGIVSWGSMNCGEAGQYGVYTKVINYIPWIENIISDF
T1 sequence (O00187 287-444 partner limits assumed): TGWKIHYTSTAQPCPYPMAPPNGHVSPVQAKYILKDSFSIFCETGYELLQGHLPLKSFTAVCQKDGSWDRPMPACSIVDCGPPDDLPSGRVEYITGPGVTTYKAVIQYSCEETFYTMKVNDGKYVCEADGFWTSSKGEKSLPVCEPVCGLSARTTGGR

`COC(=O)[C@@H]1C[C@@H](C(=O)NCc2ccc(C(=N)N)cc2)N(C(=O)[C@H](N)CCc2ccccc2)C1` [Compound I-1, Methyl (3R,5S)-1-((R)-2-amino-4-phenylbutanoyl)-5-((4-carbamimidoylbenzyl)carbamoyl)pyrrolidine-3-carboxylate ditrifluoroacetate] gave an inhibitory constant (Ki) below 500 nM.

In turn, `COC[C@H]1C[C@@H](C(=O)NCc2ccc(C(=N)N)cc2)N(C(=O)[C@H](N)CCc2ccccc2)C1` [Compound I-2, (2S,4S)-1-((R)-2-amino-4-phenylbutanoyl)-N-(4-carbamimidoylbenzyl)-4-(methoxymethyl)pyrrolidine-2-carboxamide dihydrochloride] had an inhibition constant (Ki) below 500 nM.

Take `N=C(N)c1ccc(CNC(=O)[C@@H]2C[C@H](c3ccccc3)CN2C(=O)[C@H](N)CCc2ccccc2)cc1` [Compound I-3, (2S,4R)-1-((R)-2-amino-4-phenylbutanoyl)-N-(4-carbamimidoylbenzyl)-4-phenylpyrrolidine-2-carboxamide dihydrochloride]: the inhibition constant Ki was below 500 nM.

The compound `N#C[C@H]1C[C@@H](C(=O)NCc2ccc(C(=N)N)cc2)N(C(=O)[C@H](N)CCc2ccccc2)C1` [Compound I-6, (2S,4S)-1-((R)-2-amino-4-phenylbutanoyl)-N-(4-carbamimidoylbenzyl)-4-cyanopyrrolidine-2-carboxamide ditrifluoroacetate] yielded a Ki below 500 nM.

Compound `N=C(N)c1ccc(CNC(=O)[C@@H]2C[C@@H](c3ccccc3)CN2C(=O)[C@H](N)CCc2ccccc2)cc1` [Compound I-11, (2S,4S)-1-((R)-2-amino-4-phenylbutanoyl)-N-(4-carbamimidoylbenzyl)-4-phenylpyrrolidine-2-carboxamide dihydrochloride] gave an inhibitory constant (Ki) below 500 nM.

`N=C(N)c1ccc(CNC(=O)[C@@H]2CC(n3cccn3)CN2C(=O)[C@H](N)CCc2ccccc2)cc1` (stereo partly drawn) [Compound I-22, Dihydrochloride] gave a Ki below 500 nM.

As usually defined, the Ki is the equilibrium dissociation constant of an inhibitor or competing ligand from its target. Low readings indicate higher affinity, high ones lower affinity.

Values taken from patent US12692229B2, “Masp-2 inhibitors and methods of use” (Omeros Corporation, priority 2019, dated 2026).
